Measurements published in patent US5576296A, “Galanin antagonist” (priority 1991, dated 1996).

System: scopolamine-induced release of ACh
Assay: Microdialysis: scopolamine-induced release of ACh in vivo from rat ventral hippocampus
Conditions: scopolamine 0.3 mg/kg s.c. alone; peak (second) 20 min fraction; n=2
Procedure: 2) Galanin inhibits acetylcholine release, measured according to Fisone G., et al (Proc. Natl. Acad. Sci. vol 84, 1987, 7339-7343). By using substantially the same procedure as the cited Fisone G., et al, a peptide according to the invention, M15, is now shown to counteract the inhibitory effects of galanin on the scopolamine-induced release of acetylcholine in vivo.
Surgery and basic methodology. Experiments were carried out with female CD-COBS (Charles River, Como, Italy) rats, weighing 200-260 g. Animals were anesthetized with equitensin (1% pentobarbital, 4% chloral hydrate). […] The microdialysis probe extended 3 mm beyond the end of the guide cannula; it was perfused at a constant rate of 2 μl (min with Ringer's solution (NaCl, 147 mM; CaCl2, 2.2 mM and KCl, 4.0 mM), containing 10 μM physostigmine sulfate and adjusted to pH 7.0 with NaOH. The initial 40 min perfusate was discarded. Thereafter, perfusates were collected every 20 min during a total perfusion period of 260 min. At the end of the collection period, the samples were immediately frozen on solid CO2 and lyophilized. Acetylcholine (Ach) content was quantified by a specific radioenzymatic method described in detail by Consolo S., et al. (J. Neurochem. […]

CN1[C@@H]2C[C@@H](OC(=O)[C@H](CO)c3ccccc3)C[C@H]1[C@@H]1O[C@@H]12 [Scopolamine]
ACh release: 13.1 pmol
